Experimental data as given in patent US5418236A, “Anxiolytic aroyl piperidinyl and piperazinylacyl pyrroles” (Ortho Pharmaceutical Corporation, priority 1993, dated 1995).
Where two headings read alike, the source gives them in different places. Blank lines part the entries; values can stand above or below the compound they belong to.

Tests used:
[1] = molecular target: T1, 5-HT1A receptor (Rattus norvegicus, UniProt P19327); test: 5-HT1A assay (competitive binding, 3H-8-hydroxy-DPAT, cerebral cortex P2 fraction); set-up: species or system male, Wistar rats
T1 construct: P2 fraction (synaptosomal membranes) from the cerebral cortex of male, Wistar rats; from tissue; host or cells: cerebral cortex of male Wistar rats, P2 fraction (synaptosomal membranes)
T1 sequence (P19327 1-422): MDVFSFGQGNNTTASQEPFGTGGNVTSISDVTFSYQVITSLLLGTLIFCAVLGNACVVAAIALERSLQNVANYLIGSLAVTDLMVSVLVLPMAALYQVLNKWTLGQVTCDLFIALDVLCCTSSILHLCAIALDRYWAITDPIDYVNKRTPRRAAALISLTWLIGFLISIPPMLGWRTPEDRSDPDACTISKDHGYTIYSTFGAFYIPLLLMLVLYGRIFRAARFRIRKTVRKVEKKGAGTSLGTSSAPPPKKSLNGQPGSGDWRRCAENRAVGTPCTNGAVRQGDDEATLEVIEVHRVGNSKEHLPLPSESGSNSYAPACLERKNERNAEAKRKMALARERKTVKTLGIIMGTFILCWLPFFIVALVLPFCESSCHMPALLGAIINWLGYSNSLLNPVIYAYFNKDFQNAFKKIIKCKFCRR
Protocol: The 5-HT1A assay used a P2 fraction (synaptosomal membranes) from the cerebral cortex of male, Wistar rats. The ligand ^3 H-8-hydroxy-DPAT was used in competitive binding experiments at a concentration of 3 nM, and 1 mM serotonin as a blank determinant. Incubation was in 3 mM potassium phosphate buffer for 20 min at 25° C.
The data from each assay were analyzed by calculating the percent inhibition of the binding of the tritiated ligands by given concentrations of the test compound. Ki values, where given, were obtained from the logit analysis of concentration-inhibition curves.

[2] = molecular target: α1 receptor; test: binding to the α1 receptor; details: for inhibition in binding to the α1 receptor: 1 μM
[3] = molecular target: D2 receptor (Homo sapiens, UniProt P14416); details: background statement; cited from earlier work
[4] = molecular target: D2 receptor (Rattus norvegicus, UniProt P61169); test: binding to the D2 receptor; details: 1 μM
[5] = test system: Male rats; test: anxiolytic activity: release of behavior suppressed by punishment (Vogel conflict test); assay type: in vivo
Protocol: The anxiolytic activity of selected compounds of the invention was assessed by determining their ability to release (disinhibit) behavior that had been suppressed by punishment (Vogel, J. R. et al. Psychopharmacology 1971, 21, 1). Male rats were deprived of water for 48 hours and were deprived of food for 24 hours prior to testing. After the first 24 hours of water deprivation, they were placed in the conflict chamber for a training period; wherein, they were allowed 200 unpunished licks from a bottle containing tap water. The experiment was run the next day. At the expected time of peak activity, the animals were placed in the chamber and allowed access to tap water. […] Their first lick initiates a 3-min test session. Subsequently,every 20th lick was punished by a 0.2-s shock delivered via the stainless-steel drinking-tube. Vehicle-treated control animals generally were willing to accept a median number of 3 to 8 shocks per test session. […] The Wilcoxon rank-sum test (Mann-WhitneyU-test) was used to test for an increase (p<0.05, 1-tailed) in the median number of shocks in drug-treated groups, compared to a concurrently run vehicle-treated group. The biological assay is considered to be valid if the effects of a known anxiolytic (positive control) are detected, within the same experiment. […]

[6] = molecular target: 5-HT2 receptor (Rattus norvegicus, UniProt P14842); test: binding to the 5-HT2 receptor; details: 1 μM
[7] = 3H-8-hydroxy-DPAT 3 nM, 20 min, 25° C., rat cerebral cortex P2 fraction
[8] = 3H-8-hydroxy-DPAT 3 nM, 20 min, 25° C., rat cerebral cortex P2 fraction, read-out: Ki (5HT1A)

D2 receptor (Rattus norvegicus, UniProt P61169), sequence (P61169 whole entry): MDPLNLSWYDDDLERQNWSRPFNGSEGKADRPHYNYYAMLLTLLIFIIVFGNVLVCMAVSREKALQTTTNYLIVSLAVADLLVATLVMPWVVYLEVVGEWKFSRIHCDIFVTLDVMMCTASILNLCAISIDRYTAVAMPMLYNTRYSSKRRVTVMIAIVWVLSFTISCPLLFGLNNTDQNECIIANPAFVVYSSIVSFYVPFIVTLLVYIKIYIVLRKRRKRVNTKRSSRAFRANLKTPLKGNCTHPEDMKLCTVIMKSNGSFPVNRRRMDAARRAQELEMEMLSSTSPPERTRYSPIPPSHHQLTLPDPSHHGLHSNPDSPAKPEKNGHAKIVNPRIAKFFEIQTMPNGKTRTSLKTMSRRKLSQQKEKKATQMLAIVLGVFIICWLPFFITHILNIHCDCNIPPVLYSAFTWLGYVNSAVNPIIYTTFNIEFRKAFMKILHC
5-HT2 receptor, sequence (P14842 whole entry): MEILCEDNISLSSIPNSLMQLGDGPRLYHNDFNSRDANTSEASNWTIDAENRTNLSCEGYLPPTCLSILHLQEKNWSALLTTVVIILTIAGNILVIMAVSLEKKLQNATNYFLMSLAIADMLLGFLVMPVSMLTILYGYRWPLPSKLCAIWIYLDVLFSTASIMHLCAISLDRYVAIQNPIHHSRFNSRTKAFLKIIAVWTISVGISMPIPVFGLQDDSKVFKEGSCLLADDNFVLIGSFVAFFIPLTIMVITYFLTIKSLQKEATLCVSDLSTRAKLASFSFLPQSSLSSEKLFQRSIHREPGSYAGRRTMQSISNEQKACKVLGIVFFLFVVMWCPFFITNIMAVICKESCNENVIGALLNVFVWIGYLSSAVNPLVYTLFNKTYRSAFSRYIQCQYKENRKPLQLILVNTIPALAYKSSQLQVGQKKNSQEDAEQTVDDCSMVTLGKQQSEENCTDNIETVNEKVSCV
D2 receptor (Homo sapiens, UniProt P14416), sequence (P14416 whole entry): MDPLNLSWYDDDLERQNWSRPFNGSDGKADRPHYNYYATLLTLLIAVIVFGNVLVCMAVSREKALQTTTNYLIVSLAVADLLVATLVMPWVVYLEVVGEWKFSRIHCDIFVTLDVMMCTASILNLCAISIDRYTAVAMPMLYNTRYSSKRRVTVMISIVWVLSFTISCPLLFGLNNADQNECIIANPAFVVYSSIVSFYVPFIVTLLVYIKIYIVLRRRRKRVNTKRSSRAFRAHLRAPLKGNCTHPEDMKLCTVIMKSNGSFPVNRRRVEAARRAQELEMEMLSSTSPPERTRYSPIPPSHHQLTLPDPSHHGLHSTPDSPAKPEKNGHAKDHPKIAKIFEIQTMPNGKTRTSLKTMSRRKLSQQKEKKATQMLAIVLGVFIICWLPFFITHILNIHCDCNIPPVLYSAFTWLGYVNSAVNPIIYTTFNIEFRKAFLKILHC

SMILES: O=C1CC2(CCCC2)CC(=O)N1CCCCN1CCN(c2ncccn2)CC1 [buspirone]
- Ki [2]: 138 nM
- binding to the D2 receptor [3]: binds to the D2 receptor

SMILES: Cl.Cn1cc(C(=O)CN2CCC(O)(c3ccc(Cl)cc3)CC2)cc1C(=O)c1ccccc1Cl [Example 7, 1-[5-(2-Chlorobenzoyl)-1-methyl-1H-pyrrol-3-yl]-2-[4-(4-chlorophenyl)-4-hydroxy-1-piperidinyl]ethanone Hydrochloride]
- inhibition in binding to the α1 receptor [2]: no inhibition
- Ki [1]: 15 nM
- inhibition in binding to the D2 receptor [4]: no inhibition
- change in responding ([5]; 10 mg/kg IP): 180%
- inhibition in binding to the 5-HT2 receptor [6]: no inhibition

SMILES: Cn1cc(C(=O)CN2CCN(c3ncccn3)CC2)cc1C(=O)c1ccc([N+](=O)[O-])cc1 [Example 5, 1-[1-Methyl-5-(4-nitrobenzoyl)-1H-pyrrol-3-yl]-2-[4-(2-pyrimidinyl)-1-piperazinyl]ethanone]
- inhibition in binding to the α1 receptor [2]: no inhibition
- Ki [1, 8]: 7.7 nM
- inhibition in binding to the D2 receptor [4]: no inhibition
- change in responding ([5]; 5 mg/kg IP): 240%
- inhibition in binding to the 5-HT2 receptor [6]: no inhibition

SMILES: COc1cccc(OC)c1OCCNCC1COc2ccccc2O1 (stereo not drawn) [WB4101, reference compound]
- Ki [1, 8]: 0.32 nM

SMILES: Cn1cc(C(=O)CN2CCC(c3ccccc3)CC2)cc1C(=O)c1ccc(Cl)cc1 [Example 8, 1-[5-(4-chlorobenzoyl)-1-methyl-1H-pyrrol-3-yl]-2-(4-phenylpiperidinyl)-ethanone]
- inhibition at 1 µM [1, 7]: 69%

SMILES: Cc1ccc(N(CC2=NCCN2)c2cccc(O)c2)cc1 [phentolamine, reference compound]
- Ki [1]: 59 nM

More lines, now with the values ahead:

- inhibition at 1 µM [1, 7]: 91%
SMILES: Cn1cc(C(=O)CN2CCN(c3ncccn3)CC2)cc1C(=O)c1ccc(F)cc1 [Example 6-4]

- inhibition at 1 µM [1, 7]: 94%
SMILES: Cn1cc(C(=O)CN2CCN(c3ccccn3)CC2)cc1C(=O)c1ccc(Cl)cc1 [Example 6-2]

- inhibition at 1 µM [1, 7]: 67%
SMILES: Cn1cc(C(=O)CN2CCN(c3cccc4ccccc34)CC2)cc1C(=O)c1ccc(Cl)cc1 [Example 6-5]

- inhibition at 1 µM [1, 7]: 24%
SMILES: Cc1c(C(=O)CN2CCN(c3ncccn3)CC2)c(C)n(C)c1C(=O)c1ccc(Cl)cc1 [Example 6-1]

- Ki [1, 8]: 6 nM
SMILES: Cc1c(C(=O)CCCCN2CCN(c3ncccn3)CC2)c(C)n(C)c1C(=O)c1ccc(Cl)cc1 [Example 6-6]

- inhibition at 1 µM [1, 7]: 83%
SMILES: CC(C)Oc1ccccc1N1CCN(CC(=O)c2cc(C(=O)c3ccccc3Cl)n(C)c2)CC1 [Example 6-3]
